Source: ChEMBL document CHEMBL1201862, “PubChem BioAssay data set” (2004)
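In this assay, cells in 96-well plates receive the compound at five concentrations for 48 hours. Endpoints are linearly interpolated between the surrounding concentrations. The concentration for 50% growth inhibition is given as GI50.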 Calls of active or inactive are those of the source. Rule as the data show it: active = GI50 up to about 1.1 µM and inactive = higher.

What was measured:
Assay in all cases: growth of human tumour cells (NCI), 48 h
MDA-N = tested on: MDA-N
SNB-19 = tested on: SNB-19
K562 = tested on: K562
PC-3 = tested on: PC-3
BT-549 = tested on: BT-549
SK-OV-3 = tested on: SK-OV-3
SK-MEL-2 = tested on: SK-MEL-2
MCF7 = tested on: MCF7
Hs-578T = tested on: Hs-578T
M14 = tested on: M14
OVCAR-8 = tested on: OVCAR-8
COLO 205 = tested on: COLO 205
SR = tested on: SR
DU-145 = tested on: DU-145
OVCAR-5 = tested on: OVCAR-5
Malme-3M = tested on: Malme-3M
NCI-H226 = tested on: NCI-H226
RPMI-8226 = tested on: RPMI-8226
HOP-62 = tested on: HOP-62
OVCAR-3 = tested on: OVCAR-3

Structure (SMILES) | GI50 (MDA-N) | GI50 (SNB-19) | GI50 (K562) | GI50 (PC-3) | GI50 (BT-549) | GI50 (SK-OV-3) | GI50 (SK-MEL-2) | GI50 (MCF7) | GI50 (Hs-578T) | GI50 (M14) | GI50 (OVCAR-8) | GI50 (COLO 205) | GI50 (SR) | GI50 (DU-145) | GI50 (OVCAR-5) | GI50 (Malme-3M) | GI50 (NCI-H226) | GI50 (RPMI-8226) | GI50 (HOP-62) | GI50 (OVCAR-3)
COc1cc(C)c2c(=O)c3ccccc3n(C)c2c1 | 55.6 µM (inactive) | 34.8 µM (inactive) | 17.1 µM (inactive) | 28.8 µM (inactive) | 20.8 µM (inactive) | 43.1 µM (inactive) | 36.4 µM (inactive) | 28.2 µM (inactive) | 40.4 µM (inactive) | 27.2 µM (inactive) | 22.6 µM (inactive) | 26.9 µM (inactive) | 15.6 µM (inactive) | 33.2 µM (inactive) | 16.9 µM (inactive) | 27.1 µM (inactive) | 26.7 µM (inactive) | > 10 µM (inactive) | > 10 µM (inactive) | 21.6 µM (inactive)
COc1ccc2nc3cc(Cl)ccc3c(NCCCNCc3cc(OC)c(OC)c(OC)c3)c2c1 | 1.82 µM (inactive) | 1.83 µM (inactive) | 0.465 µM (active) | 1.4 µM (inactive) | 1.76 µM (inactive) | 1.81 µM (inactive) | 1.91 µM (inactive) | 1.75 µM (inactive) | 2.95 µM (inactive) | 1.65 µM (inactive) | 1.77 µM (inactive) | 1.31 µM (inactive) | 1.2 µM (inactive) | 1.7 µM (inactive) | 1.69 µM (inactive) | 2.23 µM (inactive) | 1.67 µM (inactive) | 1.53 µM (inactive) | 1.32 µM (inactive) | 1.83 µM (inactive)
O=C(CC(c1ccccc1)C1C(=O)NC(=S)NC1=O)c1ccc([N+](=O)[O-])cc1 (stereo not given) | > 100 µM (inactive) | > 100 µM (inactive) | > 100 µM (inactive) | > 100 µM (inactive) | > 100 µM (inactive) | > 100 µM (inactive) | > 100 µM (inactive) | 17.7 µM (inactive) | > 100 µM (inactive) | > 100 µM (inactive) | > 100 µM (inactive) | > 100 µM (inactive) | 41.1 µM (inactive) | > 100 µM (inactive) | > 100 µM (inactive) | > 100 µM (inactive) | > 100 µM (inactive) | 45.9 µM (inactive) | > 100 µM (inactive) | > 100 µM (inactive)
Cc1ccccc1N(C)S(=O)(=O)c1ccccc1[N+](=O)[O-] | 45.5 µM (inactive) | 67.8 µM (inactive) | 28.7 µM (inactive) | 38.9 µM (inactive) | 33 µM (inactive) | 53.6 µM (inactive) | 47.5 µM (inactive) | 42.5 µM (inactive) | 66.1 µM (inactive) | 20.8 µM (inactive) | 75 µM (inactive) | 13.1 µM (inactive) | 36.6 µM (inactive) | > 100 µM (inactive) | 66.7 µM (inactive) | > 100 µM (inactive) | 33.1 µM (inactive) | 30.1 µM (inactive) | 48.2 µM (inactive) | 46.3 µM (inactive)
Nc1c2ccccc2nc2ccc(C(=O)Nc3ccc(S(N)(=O)=O)cc3)cc12 | > 100 µM (inactive) | > 100 µM (inactive) | > 100 µM (inactive) | > 100 µM (inactive) | > 100 µM (inactive) | > 100 µM (inactive) | > 100 µM (inactive) | > 100 µM (inactive) | > 100 µM (inactive) | > 100 µM (inactive) | > 100 µM (inactive) | > 100 µM (inactive) | > 100 µM (inactive) | > 100 µM (inactive) | > 100 µM (inactive) | > 100 µM (inactive) | > 100 µM (inactive) | > 100 µM (inactive) | > 100 µM (inactive) | > 100 µM (inactive)
c1ccc(C2C(=P(c3ccccc3)(c3ccccc3)c3ccccc3)P=PC2[P+](c2ccccc2)(c2ccccc2)c2ccccc2)cc1.c1ccc([B-](c2ccccc2)(c2ccccc2)c2ccccc2)cc1 (stereo not given) | 0.139 µM (active) | 0.313 µM (active) | 0.173 µM (active) | 0.471 µM (active) | 0.721 µM (active) | 1.85 µM (inactive) | 0.675 µM (active) | 0.543 µM (active) | 0.679 µM (active) | 0.286 µM (active) | 0.252 µM (active) | 0.202 µM (active) | 0.966 µM (active) | 0.5 µM (active) | 2.97 µM (inactive) | 1.78 µM (inactive) | 1.11 µM (active) | 0.278 µM (active) | 0.841 µM (active) | 0.579 µM (active)
COc1ccc(NC2Oc3cc4c(cc3C(c3cccc(OC)c3OC)C2C)OCO4)cc1 (stereo not given) | 7.89 µM (inactive) | 53.3 µM (inactive) | 4.21 µM (inactive) | 3.62 µM (inactive) | 13.5 µM (inactive) | 70 µM (inactive) | 5.3 µM (inactive) | 8.81 µM (inactive) | 7.96 µM (inactive) | 6.04 µM (inactive) | 5.13 µM (inactive) | 6.14 µM (inactive) | 2.04 µM (inactive) | 4.16 µM (inactive) | 19.2 µM (inactive) | 15.4 µM (inactive) | 6.82 µM (inactive) | 11.4 µM (inactive) | 32.9 µM (inactive) | 5.35 µM (inactive)
NCCCNC1(c2cc3ccccc3s2)CCCCC1 | 1.78 µM (inactive) | 8.77 µM (inactive) | 1.85 µM (inactive) | 7.13 µM (inactive) | 13.8 µM (inactive) | 13.5 µM (inactive) | 1.79 µM (inactive) | 3.69 µM (inactive) | 11.9 µM (inactive) | 1.8 µM (inactive) | 9.62 µM (inactive) | 1.84 µM (inactive) | 1.77 µM (inactive) | 12 µM (inactive) | 13 µM (inactive) | 1.88 µM (inactive) | 17.1 µM (inactive) | 1.91 µM (inactive) | 10.7 µM (inactive) | 7.19 µM (inactive)
O=C(NNc1ccccc1)c1ccc(Cl)c(Cl)c1 | 0.122 µM (active) | 25.8 µM (inactive) | 0.0281 µM (active) | 25.2 µM (inactive) | 6.81 µM (inactive) | 21.1 µM (inactive) | 0.875 µM (active) | 0.585 µM (active) | 28.5 µM (inactive) | 0.324 µM (active) | 21.2 µM (inactive) | 0.169 µM (active) | 20.3 µM (inactive) | 26.9 µM (inactive) | 57 µM (inactive) | 18.6 µM (inactive) | 29.9 µM (inactive) | 0.603 µM (active) | 54.6 µM (inactive) | 4.7 µM (inactive)
CCC/C(Cl)=N/OC(=O)Nc1cccc(F)c1 | 9.46 µM (inactive) | 17.9 µM (inactive) | 1.08 µM (active) | 17 µM (inactive) | 2.32 µM (inactive) | 17.3 µM (inactive) | 18.7 µM (inactive) | 2.77 µM (inactive) | 9.75 µM (inactive) | 3.94 µM (inactive) | 16 µM (inactive) | 2.19 µM (inactive) | 0.453 µM (active) | 17.5 µM (inactive) | 19.1 µM (inactive) | 1.73 µM (inactive) | 14.6 µM (inactive) | 1.96 µM (inactive) | 16.4 µM (inactive) | 2.61 µM (inactive)
COC(=O)c1c(O)ccc2[nH]c3c(O)c4ccccc4cc3c12 | 28.4 µM (inactive) | 41.7 µM (inactive) | 47 µM (inactive) | 30.4 µM (inactive) | 39.3 µM (inactive) | 33.6 µM (inactive) | 32.4 µM (inactive) | 16 µM (inactive) | 23.7 µM (inactive) | 30.2 µM (inactive) | 20.2 µM (inactive) | 18.3 µM (inactive) | 43.5 µM (inactive) | 20 µM (inactive) | 76.9 µM (inactive) | 20.2 µM (inactive) | 65.8 µM (inactive) | 17.4 µM (inactive) | 22.4 µM (inactive) | 15.9 µM (inactive)
O=C1C(c2c(O)[nH]c3ccc([N+](=O)[O-])cc23)=Nc2ccccc21 | > 100 µM (inactive) | 49.8 µM (inactive) | > 100 µM (inactive) | 83.6 µM (inactive) | 52.5 µM (inactive) | > 100 µM (inactive) | 43.5 µM (inactive) | 57.1 µM (inactive) | 56.9 µM (inactive) | > 100 µM (inactive) | > 100 µM (inactive) | > 100 µM (inactive) | 30.3 µM (inactive) | > 100 µM (inactive) | > 100 µM (inactive) | > 100 µM (inactive) | > 100 µM (inactive) | > 100 µM (inactive) | 87.5 µM (inactive) | > 100 µM (inactive)
Cc1ccc2[nH]c3c(c2c1)C1CCC(C(C)(C)C)CC1C1C(=O)N(c2ccc(Oc4ccccc4)cc2)C(=O)C31 (stereo not given) | 50 µM (inactive) | 16.2 µM (inactive) | 8.91 µM (inactive) | 67.9 µM (inactive) | 20 µM (inactive) | 17.7 µM (inactive) | 34.9 µM (inactive) | 56.9 µM (inactive) | 2.81 µM (inactive) | 48.8 µM (inactive) | 8.73 µM (inactive) | 13.5 µM (inactive) | 1.05 µM (active) | > 95.3 µM (inactive) | 26.3 µM (inactive) | 12.3 µM (inactive) | 29.4 µM (inactive) | 15.8 µM (inactive) | 22.4 µM (inactive) | 11.5 µM (inactive)
O=C1c2cc([N+](=O)[O-])sc2C(=O)c2cc([N+](=O)[O-])sc21 | 2.34 µM (inactive) | 3.85 µM (inactive) | 0.432 µM (active) | 4.6 µM (inactive) | 2.05 µM (inactive) | 10.1 µM (inactive) | 6.7 µM (inactive) | 2.58 µM (inactive) | 9.18 µM (inactive) | 3.78 µM (inactive) | 5.79 µM (inactive) | 2.02 µM (inactive) | 0.268 µM (active) | 10.3 µM (inactive) | 7.11 µM (inactive) | 0.34 µM (active) | 12.3 µM (inactive) | 0.535 µM (active) | 6.21 µM (inactive) | 2.41 µM (inactive)
